These results are taken from patent US4379156A, “Heterocyclic chemicals, their preparation and use” (Burroughs Wellcome Co., priority 1979, dated 1983).

In data set [1] the test system is Schistosoma mansoni. As to the kind of experiment: Schistosomicidal activity in infected mice (proportion of dead worms). Particulars: 12.5 mg/kg, dead worms relative to total worms recovered, autopsy 7 to 10 days after treatment; for % kill P.O.: oral; for % kill S.C.: subcutaneous. The class given is in vivo. The protocol: Male mice weighing between 18 and 20 g were each infected percutaneously with 80 to 100 cercariae of Schistosoma mansoni. Groups of 5 or 10 mice with a 7 to 9 week infection of schistosomes were dosed orally (P.O.) or subcutaneously (S.C.) with 12.5 mg/kg of the compounds to be tested, and the animals were autopsied from 7 to 10 days after treatment. The number, sex and proportional distribution of schistosomes within the mesenteric, portal and intrahepatic veins were determined, and the final assessment of dose response was made on the proportion of dead worms found in relation to the total worms recovered in the treated group.

The nature of data set [2]: Toxicity in adult male mice (LD50). Particulars: mouse, in vivo, iv, I.V.
A short description of data set [3]: Toxicity in adult male mice (LD50). Particulars: mouse, in vivo, observed up to 10 days. How it is done:
Groups of adult male mice were given graded doses of the compound to be tested by stomach tube (P.O.) or subcutaneously (S.C.). The animals were kept under observation at frequent intervals up to 6 hours, then at 24 hours and daily for up to 10 days for overt changes in behaviour and for fatalities.

[4] abbreviates: po, by stomach tube, read-out: LD50 P.O.
The mark [5] stands for this setting: sc, subcutaneous, read-out: LD50 S.C.

Values joined by “and” are separate entries in the source; they are usually repeats but may differ in a detail not shown here. Equal values may be shown once. Read-outs that look alike come from different tables or passages of the source.

As to “2-[2-(2-Chlorobenzoylimino)-5-nitro-4-thiazolin-3-yl]diacetamide [Example 3]”, in data set [1], the “% kill P.O.” value was 100% and 71%; the “% kill S.C.” value is 99% and 98%.

In data set [2], `CC(=O)NC(=O)Cn1cc([N+](=O)[O-])sc1=NC(=O)c1ccccc1` [*(1), 2-[2-(benzoylimino)-5-nitro-4-thiazolin-3yl]diacetamide, reference compound] had a median lethal dose (LD50) of 192 mg/kg. The LD50 at 240 h in data set [3] (setting [4]) came to 953 mg/kg. In data set [1], the “% kill P.O.” value was determined as 58% and the “% kill S.C.” value was determined as 53%.

Regarding `NC(=O)Cn1cc([N+](=O)[O-])sc1=NC(=O)c1ccccc1` [*(2), 2-(benzoylimino)-5-nitro-4-thiazoline-3-acetamide, reference compound], in data set [1], the “% kill P.O.” value is 8.5% and the “% kill S.C.” value is listed as 0%.

Turning to `CC(=O)NC(=O)Cn1cc([N+](=O)[O-])sc1=NC(=O)c1ccccc1C` [Example 1, 2-[2-(2-Methylbenzoylimino)-5-nitro-4-thiazolin-3-yl]diacetamide], in data set [3] (setting [4]), the LD50 at 240 h is above 2000 mg/kg. Besides, the median lethal dose (LD50) at 240 h in data set [3] (setting [5]) is above 2000 mg/kg. For the same compound, in data set [1], the “% kill P.O.” value worked out at 80% and the “% kill S.C.” value is recorded as 100%.

With `CC(=O)NC(=O)Cn1cc([N+](=O)[O-])sc1=NC(=O)c1cccc([N+](=O)[O-])c1` [Example 2, 2-[2-(3-Nitrobenzoylimino)-5-nitro-4-thiazolin-3-yl]diacetamide], the LD50 at 240 h in data set [3] (setting [4]) is above 2000 mg/kg. Further, the 50% lethal dose (LD50) at 240 h in data set [3] (setting [5]) is above 2000 mg/kg. For the same compound, in data set [1], the “% kill P.O.” value is given as 100% and the “% kill S.C.” value amounted to 100%.

`CC(=O)NC(=O)Cn1cc([N+](=O)[O-])sc1=NC(=O)c1ccccc1[N+](=O)[O-]` [Example 4, 2-[2-(2-Nitrobenzoylimino)-5-nitro-4-thiazolin-3-yl]diacetamide]: in data set [1], the “% kill P.O.” value is given as 74% and the “% kill S.C.” value is 98%.

Turning to `Cc1ccccc1C(=O)N=c1sc([N+](=O)[O-])cn1CC(N)=O` [Example 5, 2-[(2-Methylbenzoyl)imino]-5-nitro-4-thiazoline-3-acetamide], the median lethal dose (LD50) at 240 h in data set [3] (setting [4]) was above 2000 mg/kg; in data set [3] (setting [5]), above 1000 mg/kg.

`NC(=O)Cn1cc([N+](=O)[O-])sc1=NC(=O)c1cccc([N+](=O)[O-])c1` [Example 6, 2-[(3-Nitrobenzoyl)imino]-5-nitro-4-thiazoline-3-acetamide]: the LD50 at 240 h in data set [3] (setting [4]) was above 1000 mg/kg; in data set [3] (setting [5]), above 500 mg/kg.

The term LD50 denotes the dose expected to kill half of the subjects tested.
